In one series the test system is Capan-1 cells. Kind of series: Inhibitory activity for Capan-1 cell proliferation (CCK-8). The following applies: Homo sapiens, CAPAN-1, 120 h, 5 days incubation. In kind it is cell-based. Summed up: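 Capan-1 cells were seeded at 1.5 × 10^4 cells/mL and exposed to compound for 5 days. CCK-8 was added for 4 h, with absorbance read at 450 nm. IC50 came from a four-parameter dose-response fit.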

For series [1] the following is noted: microsomes, 1 h.
Procedure: Liver microsome incubation samples (species: human, monkey, rat, and mouse) were prepared by mixing a PBS buffer (pH 7.4), a liver microsome solution (0.5 mg/mL), a test compound, and an NADPH + MgCl2 solution and incubated at 37 °C and 300 rpm for 1 h. Zero-hour samples were prepared by mixing a PBS buffer (pH 7.4), a liver microsome solution (0.5 mg/mL), and a test compound. An acetonitrile solution containing an internal standard was added to the samples, and the supernatants were prepared by protein precipitation, diluted, and then assayed by LC/MS/MS.
The nature of series [2]: In vitro liver microsomal stability, human. In kind it is in vitro ADME. The settings on record: human liver microsome 0.5 mg/mL, 37 °C. The source says:
Table 2. Results for in vitro liver microsomal metabolic stability
(In general: Liver microsomes are vesicles of endoplasmic reticulum, rich in cytochrome P450 enzymes.)

Series [3] is described as follows: In vivo pharmacokinetics in mice. The following applies: mouse, plasma, po, ICR mice, IG, 10 mg/kg. How it is done:
ICR mice weighing 20 g to 24 g were randomized into groups with 9 mice in each group after 3 to 5 days of acclimatization, and intragastric administration of the experimental compounds was performed at a dose of 10 mg/kg.
The test animals (ICR mice) were fasted for 12 h before administration and fed 4 h after administration, and were given free access to water before, after, and during the experiment.
After intragastric administration, about 0.1 mL of blood was collected via the orbital sinus at 0.25 h (15 min), 0.5 h (30 min), 1 h, 2 h, 4 h, 6 h, 8 h, and 10 h (each mouse was subjected to blood collection at 3 to 4 time points, with 3 mice per time point). Following anticoagulation with EDTA-K2, the blood samples were transferred to a centrifuge within 30 min and then centrifuged at 4000 rpm for 10 min at 4 °C to separate the plasma. All the plasma samples were collected and immediately stored at -20 °C for testing.
20 µL of the plasma sample to be tested and the standard curve sample were pipetted, and 400 µL of acetonitrile solution containing an internal standard (20 ng/mL) was added. The mixture was shaken and mixed well for 10 min, and centrifuged at 13000 rpm for 10 min. 50 µL of the supernatant was taken and diluted with 100 µL of ultrapure water. After being mixed well, 0.5 µL of the resulting sample was subjected to LC/MS/MS, and a chromatogram was recorded.
Oral exposure of the compounds of the present disclosure was evaluated by in vivo pharmacokinetic experiments in mice.

Another series deals with AsPc-1 cells. As to the kind of experiment: Inhibitory activity for AsPc-1 cell proliferation (CCK-8). The series is classed as cell-based, human. The settings on record: Homo sapiens, ASPC1, 72 h incubation.

Bounds are passed on as bounds.

One may read the IC50 as the concentration that inhibits the measured activity by half. Regarding `C#Cc1c(F)ccc2cc(O)cc(-c3nc4c5c(nc(OC[C@H](C)N(C)C)nc5c3F)N(C(C)c3cccnc3N)[C@@H](C)CO4)c12` (single isomer, unassigned) [Example 111], in the series on Capan-1 cells, the IC50 was less than 100 nM. Also, in series [1], the “The remaining amount % (T = 60 min) (0.5 mg/mL) Mouse liver microsome” value is reported as more than 60%.
For `C#Cc1c(F)ccc2cc(O)cc(-c3nc4c5c(nc(OCCCN6CCNCC6)nc5c3F)N(C(C)c3cccnc3N)[C@@H](C)CO4)c12` (single isomer, unassigned) [Example 140], the IC50 with Capan-1 cells is less than 100 nM. In series [1], the “The remaining amount % (T = 60 min) (0.5 mg/mL) Mouse liver microsome” value is listed as more than 60%.
As usually defined, the Cmax is the highest concentration seen after dosing. Broadly, the Tmax is the time at which the peak concentration occurs. In general, AUC(0-t) refers to the area under the concentration-time curve up to a stated or last time point. A higher AUC(0-t) goes with more exposure. `CC(c1cccnc1N)N1c2nc(OC[C@@H]3CCCN3C)nc3c(F)c(-c4cc(N)cc(Cl)c4C(F)(F)F)nc(c23)OC[C@@H]1C` (single isomer, unassigned) [Example 162] displayed an IC50 in the series with Capan-1 cells of less than 100 nM. For the same compound, in series [2], the “The remaining amount % (T = 60 min) (0.5 mg/mL) Human liver microsome” value was more than 40%. Also, in series [3], the peak level (Cmax) was 38.4 ng/mL and the Tmax stood at 1 h. In series [3] (gavage parameters were fitted to 6 h), the AUC(0-t) at 6 h was 156 ng·h/mL.
In the series on Capan-1 cells, `C#Cc1c(F)ccc2cc(O)cc(-c3nc4c5c(nc(O[C@@H](C)[C@@H]6CCCN6C)nc5c3F)N(C(C)c3cccnc3N)[C@@H](C)CO4)c12` (single isomer, unassigned) [Example 107] yielded an IC50 of less than 100 nM. Besides, in series [2], the “The remaining amount % (T = 60 min) (0.5 mg/mL) Human liver microsome” value is on record as more than 40%.
Turning to `C#Cc1c(F)ccc2cc(O)cc(-c3nc4c5c(nc(OCC67CCCN6CCC7)nc5c3F)N(C(C)c3cccnc3N)[C@@H](C)CO4)c12` (single isomer, unassigned) [Example 97], the IC50 with AsPc-1 cells is not above 100 nM; in the series on Capan-1 cells it was less than 100 nM. Further, in series [2], the “The remaining amount % (T = 60 min) (0.5 mg/mL) Human liver microsome” value is given as more than 40%.
As for `C#Cc1c(F)ccc2cc(O)cc(-c3nc4c5c(nc(OCCN6CCC6)nc5c3F)N(C(C)c3cccnc3N)[C@@H](C)CO4)c12` (single isomer, unassigned) [Example 134], in the series on Capan-1 cells, the IC50 was less than 100 nM. Moreover, the “The remaining amount % (T = 60 min) (0.5 mg/mL) Mouse liver microsome” value in series [1] is listed as more than 60%.

Source of the values: patent publication EP4570805A1, “TRICYCLIC COMPOUNDS AND MEDICAL USE THEREOF” (Chia Tai Tianqing Pharmaceutical Group Co., Ltd., priority 2022, dated 2024).
